Measurements reported in PubChem BioAssay (NCI).
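Test compounds were applied to cells in 96-well plates for 48 hours at 5 doses. GI50 = concentration required for 50% inhibition of growth. Definition used: TGI = concentration required for complete inhibition of growth.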

Tests used:
Test in all cases: DTP human tumour cell line panel, 48 h
COLO 205 colon = test system: COLO 205 colon
CAKI-1 renal = test system: CAKI-1 renal
HCC-2998 colon = test system: HCC-2998 colon
TK-10 renal = test system: TK-10 renal
EKVX NSCLC = test system: EKVX NSCLC
PC-3 prostate = test system: PC-3 prostate
HCT-116 colon = test system: HCT-116 colon
SK-MEL-5 melanoma = test system: SK-MEL-5 melanoma
ACHN renal = test system: ACHN renal
LOX IMVI melanoma = test system: LOX IMVI melanoma

Row | SMILES | GI50 (COLO 205 colon) | TGI (COLO 205 colon) | GI50 (CAKI-1 renal) | TGI (CAKI-1 renal) | GI50 (HCC-2998 colon) | TGI (HCC-2998 colon) | GI50 (TK-10 renal) | TGI (TK-10 renal) | GI50 (EKVX NSCLC) | TGI (EKVX NSCLC) | GI50 (PC-3 prostate) | TGI (PC-3 prostate) | GI50 (HCT-116 colon) | TGI (HCT-116 colon) | GI50 (SK-MEL-5 melanoma) | TGI (SK-MEL-5 melanoma) | GI50 (ACHN renal) | TGI (ACHN renal) | GI50 (LOX IMVI melanoma) | TGI (LOX IMVI melanoma)
1 | CNC(=O)c1c(C)oc2cc(Oc3ncnc4cc(OC)c(OC)cc34)ccc12 | > 100 µM | > 100 µM | > 100 µM | > 100 µM | > 100 µM | > 100 µM | > 100 µM | > 100 µM | > 100 µM | > 100 µM | > 100 µM | > 100 µM | > 100 µM | > 100 µM | > 100 µM | > 100 µM | > 100 µM | > 100 µM | > 100 µM | > 100 µM
2 | O=c1oc2ccc(I)cc2c(=O)n1-c1ccc(Br)cc1F | 3.19 µM | 11.6 µM | 0.375 µM | 3.23 µM | 2.98 µM | 9.5 µM | 3.81 µM | 10.2 µM | 1.34 µM | 7.11 µM | 1.94 µM | 6.89 µM | 0.621 µM | 2.38 µM | 0.317 µM | 1.04 µM | 0.751 µM | 10.7 µM | 0.626 µM | 5.86 µM
3 | Cc1cc2nc(NCCN)n(Cc3ccc(F)c(Cl)c3)c2cc1C | 1.68 µM | 3.38 µM | 12.7 µM | 25.4 µM | 1.82 µM | 3.65 µM | 16.9 µM | 31.2 µM | 13.8 µM | 28.4 µM | 10 µM | 22.4 µM | 2.29 µM | 4.7 µM | 14.4 µM | 27.6 µM | 11.2 µM | 24.7 µM | 3.73 µM | 14.5 µM
4 | O=C(CN(/C=C/C(=O)C(F)(F)F)c1ccc(Cl)cc1)c1ccc(Cl)cc1 | 13.4 µM | 31.8 µM | 1.98 µM | 9.5 µM | 15.7 µM | 35 µM | 4.78 µM | 19.3 µM | 14.3 µM | 28.7 µM | 12.9 µM | 26.5 µM | 4.09 µM | 20.7 µM | 11.6 µM | 24.3 µM | 8.01 µM | 20.7 µM | 4.61 µM | 20.9 µM
5 | CCc1cccc(C(C)C)c1NC(=O)C(=O)C1C(=O)Nc2ccccc2S1=O (stereo not given) |  | > 100 µM |  | > 100 µM |  | > 100 µM |  | > 100 µM |  | > 100 µM |  | > 100 µM |  | > 100 µM |  | > 100 µM |  | > 100 µM |  | > 100 µM
6 | CCc1nc(N)nc(N)c1-c1ccc(Cl)c([N+](=O)[O-])c1 |  | 55.5 µM |  | > 100 µM |  | > 100 µM |  | > 100 µM |  | > 100 µM |  | > 100 µM |  | > 100 µM |  | 48.8 µM |  | > 100 µM |  | > 100 µM
7 | CCOC(=O)C1=CCCC[C@H]1S(=O)(=O)Nc1ccc(F)cc1Cl | 38.2 µM | > 100 µM | 31.5 µM | > 100 µM | 31.2 µM | > 100 µM | 33 µM | > 100 µM | 26.8 µM | > 100 µM | 34 µM | > 100 µM | 25 µM | 95.3 µM | 10.5 µM | 24.5 µM | 29 µM | > 100 µM | 22.7 µM | > 100 µM
8 | COc1ccc(Nc2nc3cc(N)cc(N)c3nc2-c2ccccc2)cc1 | 15.7 µM | 29.2 µM | 35.2 µM | > 100 µM | 28.1 µM | > 100 µM | 16.5 µM | 42.5 µM | 26 µM | > 100 µM | 20.9 µM | 47.6 µM | 14.9 µM | 28.1 µM | 15.3 µM | 28.6 µM | 15.3 µM | 43.3 µM | 16.1 µM | 29.8 µM
9 | CNC(=O)c1ccc(N2C(=S)N(c3cnc(C#N)c(C(F)(F)F)c3)C(=O)C23CCC3)cc1F | > 100 µM | > 100 µM | > 100 µM | > 100 µM | > 100 µM | > 100 µM | > 100 µM | > 100 µM | > 100 µM | > 100 µM | > 100 µM | > 100 µM | > 95.4 µM | > 100 µM | > 100 µM | > 100 µM | > 100 µM | > 100 µM | > 100 µM | > 100 µM
10 | O=C1Nc2c(ccc(Cl)c2Cl)/C1=C/c1cc(Br)c(O)c(Br)c1 | 5.05 µM | 27.4 µM | 2.59 µM | > 37 µM | 6.59 µM | 32.5 µM | 12 µM | > 100 µM | 4.54 µM | 97.3 µM | 5.23 µM | > 100 µM | 4.45 µM | > 44.9 µM | 2.6 µM | 10.2 µM | 9.86 µM | > 86.4 µM | 6.94 µM | 63.6 µM
11 | COc1ccc2ncn(-c3cc(O[C@H](C)c4ccccc4C(F)(F)F)c(C(N)=O)s3)c2c1 | 0.0838 µM | 3.24 µM | 1.65 µM | 17.5 µM | 0.161 µM | 3.27 µM | 1.33 µM | 7.22 µM | 1.33 µM | 13.1 µM | 0.137 µM | 15.3 µM | 0.125 µM | 3.53 µM | 0.169 µM | 3.55 µM | 3.17 µM | 25 µM | 0.105 µM | 3.56 µM
